According to the NIST ThermoML archive (doi:10.1016/j.jct.2015.12.019):
± gives the expanded uncertainty stated by the source.

Assay: refractive index (Na D-line) (dimensionless)
Conditions: 303.15 K; 101.33 kPa; Liquid; Standard Abbe refractometry

Row | refractive index | SMILES
1 | 1.3913 ± 0.018 | CC(C)C(=O)O [2-methylpropanoic acid]
2 | 1.3844 ± 0.018 | CCCCCCC [heptane]
3 | 1.4815 ± 0.018 | O=S1(=O)CCCC1 [sulfolane]
